Measured values from patent publication US10131652B2, “Pyrimidinyloxy benzene derivatives as herbicides” (E. I. DU PONT DE NEMOURS AND COMPANY, priority 2014, dated 2018).
Read-outs that look alike come from different tables or passages of the source.

Columns and labels:
Format in all cases: in vivo
[1] = test system: barnyardgrass (Echinochloa crus-galli); assay: Test B pre-/postemergence plant response; conditions: for pest or weed control at 1000 g/ha: Echinochloa crus-galli, 240 h, 1000 g ai/ha, read-out: Plant response rating, Barnyardgrass
How it was run: (§1)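 Evaluation is visual, about 10 days after application, rating injury from 0 (none) to 100 (complete control) relative to untreated controls. Application was a preemergence soil spray on seeded pots or a postemergence spray on one- to two-leaf plants.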

corn (Zea mays) = assay: Test B pre-/postemergence plant response; conditions: for Corn plant response rating (crop injury, 0 = no effect, 100 = complete kill) at 1000 g/ha: Zea mays, 240 h, 1000 g ai/ha
How it was run: as §1

[2] = test system: giant foxtail (Setaria faberii); assay: Test B pre-/postemergence plant response; conditions: for pest or weed control at 1000 g/ha: Setaria faberi, 240 h, 1000 g ai/ha, read-out: Plant response rating, Foxtail, Giant
How it was run: as §1

[3] = test system: large (Lg) crabgrass (Digitaria sanguinalis); assay: Test B pre-/postemergence plant response; conditions: for pest or weed control at 1000 g/ha: Digitaria sanguinalis, 240 h, 1000 g ai/ha, read-out: Plant response rating, Crabgrass, Large
How it was run: as §1

[4] = test system: morningglory (Ipomoea spp.); assay: Test B pre-/postemergence plant response; conditions: for pest or weed control at 1000 g/ha: Ipomoea, 240 h, 1000 g ai/ha, read-out: Plant response rating, Morningglory
How it was run: as §1

[5] = test system: pigweed (Amaranthus retroflexus); assay: Test B pre-/postemergence plant response; conditions: for pest or weed control at 1000 g/ha: Amaranthus retroflexus, 240 h, 1000 g ai/ha, read-out: Plant response rating, Pigweed
How it was run: as §1

[6] = test system: velvetleaf (Abutilon theophrasti); assay: Test B pre-/postemergence plant response; conditions: for pest or weed control at 1000 g/ha: Abutilon theophrasti, 240 h, 1000 g ai/ha, read-out: Plant response rating, Velvetleaf
How it was run: as §1

[7] = test system: wheat (Triticum aestivum); assay: Test B pre-/postemergence plant response; conditions: for plant injury at 1000 g/ha: Triticum aestivum, 240 h, 1000 g ai/ha, read-out: Plant response rating, Wheat
How it was run: as §1

[8] = test system: barnyardgrass (Echinochloa crus-galli); assay: Test C flooded paddy test plant response; conditions: Flood, 250 g ai/ha, scale of 0 to 100 where 0 is no effect and 100 is complete control, 13 to 15 days
How it was run: (§2)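 Visual injury ratings (0, no effect; 100, complete control) were assigned after 13 to 15 days in a greenhouse, comparing treated plants with controls. Compounds had been added straight into paddy water over 2-leaf-stage plants flooded to 3 cm.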

[9] = test system: ducksalad (Heteranthera limosa); assay: Test C flooded paddy test plant response; conditions: Flood, 250 g ai/ha, scale of 0 to 100 where 0 is no effect and 100 is complete control, 13 to 15 days
How it was run: as §2

rice (Oryza sativa) = assay: Test C flooded paddy test plant response; conditions: Flood, 250 g ai/ha, scale of 0 to 100 where 0 is no effect and 100 is complete control, 13 to 15 days
How it was run: as §2

[10] = test system: small-flower umbrella sedge (Cyperus difformis); assay: Test C flooded paddy test plant response; conditions: Flood, 250 g ai/ha, scale of 0 to 100 where 0 is no effect and 100 is complete control, 13 to 15 days
How it was run: as §2

[11] = 125 g ai/ha, postemergence, 0 to 100 scale, 0 no effect, 100 complete control
[12] = Postemergence, 500 g ai/ha, 0 to 100 scale (0 no effect, 100 complete control)
[13] = Preemergence, 125 g ai/ha, 0 to 100 scale where 0 is no effect and 100 is complete control
[14] = Preemergence, 500 g ai/ha, 0 to 100 scale (0 no effect, 100 complete control)
[15] = post-emergence, Postemergence, 0 to 100 scale (0 no effect, 100 complete control)
[16] = pre-emergence, Preemergence, 0 to 100 scale (0 no effect, 100 complete control)

Cn1cc(-c2ccccc2Oc2ncc(Cl)cn2)cn1 [Compound 11]
10: Plant response rating, Barnyardgrass [1, 12] | Plant response rating, Crabgrass, Large [3, 11] | Plant response rating, Crabgrass, Large [3, 12] | Plant response rating, Morningglory [4, 11] | Plant response rating, Pigweed [5, 11] | Plant response rating, Velvetleaf [6, 11] | Plant response rating, Velvetleaf [6, 13] | Plant response rating, Velvetleaf [6, 14]
30: Plant response rating, Pigweed [5, 14]
20: Plant response rating, Morningglory [4, 12] | Plant response rating, Pigweed [5, 12] | Plant response rating, Velvetleaf [6, 12]
0: Plant response rating, Barnyardgrass [1, 11] | Plant response rating, Barnyardgrass [1, 13] | Plant response rating, Barnyardgrass [1, 14] | Plant response rating, Corn (corn (Zea mays); [11]) | Plant response rating, Corn (corn (Zea mays); [12]) | Plant response rating, Corn (corn (Zea mays); [13]) | Plant response rating, Corn (corn (Zea mays); [14]) | Plant response rating, Foxtail, Giant [2, 11] | Plant response rating, Foxtail, Giant [2, 12] | Plant response rating, Foxtail, Giant [2, 13] | Plant response rating, Foxtail, Giant [2, 14] | Plant response rating, Crabgrass, Large [3, 13] | Plant response rating, Crabgrass, Large [3, 14] | Plant response rating, Morningglory [4, 13] | Plant response rating, Pigweed [5, 13] | Plant response rating, Wheat [7, 11] | Plant response rating, Wheat [7, 12] | Plant response rating, Wheat [7, 13] | Plant response rating, Wheat [7, 14] | Barnyardgrass plant response rating [8] | Ducksalad plant response rating [9] | Rice plant response rating (rice (Oryza sativa)) | Sedge, Umbrella plant response rating [10]

Clc1cnc(Oc2ccccc2-c2cc(Br)no2)nc1 [Compound 12, 2-[2-(3-bromo-5-isoxazolyl)phenoxy]-5-chloropyrimidine]
40%: pest or weed control at 1000 g/ha [1, 15] | pest or weed control at 1000 g/ha [2, 15] | pest or weed control at 250 g/ha ([9]; Heteranthera limosa, read-out: Ducksalad plant response rating)
70%: pest or weed control at 1000 g/ha [6, 16]
80%: pest or weed control at 1000 g/ha [3, 16]
0%: Corn plant response rating (crop injury, 0 = no effect, 100 = complete kill) at 1000 g/ha (corn (Zea mays); [15]) | Corn plant response rating (crop injury, 0 = no effect, 100 = complete kill) at 1000 g/ha (corn (Zea mays); [16]) | pest or weed control at 1000 g/ha [4, 16] | plant injury at 1000 g/ha [7, 16] | plant injury at 250 g/ha (rice (Oryza sativa); Oryza sativa, read-out: Rice plant response rating) | pest or weed control at 250 g/ha ([10]; Cyperus difformis, read-out: Sedge, Umbrella plant response rating)
30%: pest or weed control at 1000 g/ha [3, 15] | pest or weed control at 1000 g/ha [4, 15]
20%: pest or weed control at 1000 g/ha [1, 16]
90%: pest or weed control at 1000 g/ha [2, 16] | pest or weed control at 1000 g/ha [5, 16] | pest or weed control at 1000 g/ha [6, 15]
10%: plant injury at 1000 g/ha [7, 15] | pest or weed control at 250 g/ha ([8]; Echinochloa crus-galli, read-out: Barnyardgrass plant response rating)
100%: pest or weed control at 1000 g/ha [5, 15]

FC(F)(F)c1cnc(Oc2ccccc2-c2cncs2)nc1 [Compound 13]
40: Plant response rating, Pigweed [5, 12] | Ducksalad plant response rating [9]
30: Plant response rating, Velvetleaf [6, 11]
10: Plant response rating, Corn (corn (Zea mays); [12]) | Plant response rating, Foxtail, Giant [2, 14] | Plant response rating, Crabgrass, Large [3, 12] | Plant response rating, Crabgrass, Large [3, 14] | Plant response rating, Morningglory [4, 12] | Plant response rating, Velvetleaf [6, 14]
60: Plant response rating, Velvetleaf [6, 12]
0: Plant response rating, Barnyardgrass [1, 11] | Plant response rating, Barnyardgrass [1, 12] | Plant response rating, Barnyardgrass [1, 13] | Plant response rating, Barnyardgrass [1, 14] | Plant response rating, Corn (corn (Zea mays); [11]) | Plant response rating, Corn (corn (Zea mays); [13]) | Plant response rating, Corn (corn (Zea mays); [14]) | Plant response rating, Foxtail, Giant [2, 11] | Plant response rating, Foxtail, Giant [2, 12] | Plant response rating, Foxtail, Giant [2, 13] | Plant response rating, Crabgrass, Large [3, 11] | Plant response rating, Crabgrass, Large [3, 13] | Plant response rating, Morningglory [4, 11] | Plant response rating, Morningglory [4, 13] | Plant response rating, Morningglory [4, 14] | Plant response rating, Pigweed [5, 11] | Plant response rating, Pigweed [5, 13] | Plant response rating, Velvetleaf [6, 13] | Plant response rating, Wheat [7, 11] | Plant response rating, Wheat [7, 12] | Plant response rating, Wheat [7, 13] | Plant response rating, Wheat [7, 14] | Barnyardgrass plant response rating [8] | Rice plant response rating (rice (Oryza sativa)) | Sedge, Umbrella plant response rating [10]
80: Plant response rating, Pigweed [5, 14]

FC(F)(F)c1cnc(Oc2ccccc2-c2cscn2)nc1 [Compound 14]
100: Plant response rating, Pigweed [5, 14]
0: Plant response rating, Barnyardgrass [1, 11] | Plant response rating, Barnyardgrass [1, 12] | Plant response rating, Barnyardgrass [1, 13] | Plant response rating, Barnyardgrass [1, 14] | Plant response rating, Corn (corn (Zea mays); [11]) | Plant response rating, Corn (corn (Zea mays); [13]) | Plant response rating, Corn (corn (Zea mays); [14]) | Plant response rating, Foxtail, Giant [2, 11] | Plant response rating, Foxtail, Giant [2, 13] | Plant response rating, Crabgrass, Large [3, 11] | Plant response rating, Crabgrass, Large [3, 13] | Plant response rating, Morningglory [4, 11] | Plant response rating, Morningglory [4, 12] | Plant response rating, Morningglory [4, 13] | Plant response rating, Morningglory [4, 14] | Plant response rating, Pigweed [5, 11] | Plant response rating, Pigweed [5, 13] | Plant response rating, Velvetleaf [6, 13] | Plant response rating, Wheat [7, 11] | Plant response rating, Wheat [7, 12] | Plant response rating, Wheat [7, 13] | Plant response rating, Wheat [7, 14] | Barnyardgrass plant response rating [8] | Rice plant response rating (rice (Oryza sativa)) | Sedge, Umbrella plant response rating [10]
10: Plant response rating, Foxtail, Giant [2, 12] | Plant response rating, Crabgrass, Large [3, 12]
50: Plant response rating, Pigweed [5, 12]
40: Ducksalad plant response rating [9]
20: Plant response rating, Crabgrass, Large [3, 14] | Plant response rating, Velvetleaf [6, 11] | Plant response rating, Velvetleaf [6, 14]
30: Plant response rating, Corn (corn (Zea mays); [12]) | Plant response rating, Foxtail, Giant [2, 14] | Plant response rating, Velvetleaf [6, 12]
